According to US8119637B2, “Substituted pyrrolo[2,3-b]pyrazines and methods for kinase modulation, and indications therefor” (Plexxikon Inc., priority 2008, dated 2012):

How the values were obtained:
Format in all cases: biochemical
Settings in all cases: method of U.S. Ser. No. 11/473,347 or similar
Btk = Btk (Homo sapiens, UniProt Q06187); test: Btk kinase activity assay
Text: (§1) Assays for the activity of kinases, including, but not limited to, Fms, Kit, B-Raf, B-Raf V600E, B-Raf V600E/T5291 and c-Raf-1 are known in the art, for example as described in US Patent Publication Number US20070032519 and U.S. patent application Ser. No. 11/473,347 (see also, PCT publication WO2007002433), the disclosures of which are hereby incorporated by reference with respect to such assays.
(§2) Compounds P-0001 was screened by at least one of the methods described in U.S. patent application Ser. No. 11/473,347, or by similar methods.

Kdr = Kdr (Homo sapiens, UniProt P35968); test: Kdr kinase activity assay
Text: as §1, §2

Fms = Fms (Homo sapiens, UniProt P07333); test: Fms kinase activity assay
Text: as §1, §2

Kit = Kit (Homo sapiens, UniProt P10721); test: Kit kinase activity assay
Text: as §1, §2

Fms, sequence (P07333 20-972): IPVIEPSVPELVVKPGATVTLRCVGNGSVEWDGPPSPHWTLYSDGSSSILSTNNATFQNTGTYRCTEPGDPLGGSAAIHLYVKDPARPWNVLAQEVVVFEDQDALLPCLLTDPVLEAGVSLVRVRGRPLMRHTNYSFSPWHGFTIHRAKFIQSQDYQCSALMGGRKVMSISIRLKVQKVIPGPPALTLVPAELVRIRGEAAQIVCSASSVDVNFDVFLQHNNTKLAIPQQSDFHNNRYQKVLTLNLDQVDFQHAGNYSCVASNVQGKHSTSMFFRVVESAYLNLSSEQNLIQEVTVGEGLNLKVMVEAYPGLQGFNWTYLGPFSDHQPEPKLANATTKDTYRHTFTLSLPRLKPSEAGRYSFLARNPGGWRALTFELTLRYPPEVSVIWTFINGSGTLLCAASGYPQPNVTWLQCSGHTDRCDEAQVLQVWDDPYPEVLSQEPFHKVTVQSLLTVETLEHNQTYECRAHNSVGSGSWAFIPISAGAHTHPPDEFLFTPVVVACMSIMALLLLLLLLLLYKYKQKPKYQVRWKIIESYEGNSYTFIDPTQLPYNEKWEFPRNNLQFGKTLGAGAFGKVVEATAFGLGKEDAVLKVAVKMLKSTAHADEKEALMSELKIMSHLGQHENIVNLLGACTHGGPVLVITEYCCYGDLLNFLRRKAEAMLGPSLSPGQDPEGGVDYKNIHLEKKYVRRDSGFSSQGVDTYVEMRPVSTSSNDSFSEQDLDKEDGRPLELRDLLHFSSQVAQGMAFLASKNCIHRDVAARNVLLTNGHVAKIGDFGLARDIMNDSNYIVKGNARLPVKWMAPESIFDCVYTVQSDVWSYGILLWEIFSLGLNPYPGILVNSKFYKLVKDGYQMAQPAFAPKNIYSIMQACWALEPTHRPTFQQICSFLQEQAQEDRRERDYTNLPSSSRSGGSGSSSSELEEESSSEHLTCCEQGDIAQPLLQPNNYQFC
Kit, sequence (P10721 26-976): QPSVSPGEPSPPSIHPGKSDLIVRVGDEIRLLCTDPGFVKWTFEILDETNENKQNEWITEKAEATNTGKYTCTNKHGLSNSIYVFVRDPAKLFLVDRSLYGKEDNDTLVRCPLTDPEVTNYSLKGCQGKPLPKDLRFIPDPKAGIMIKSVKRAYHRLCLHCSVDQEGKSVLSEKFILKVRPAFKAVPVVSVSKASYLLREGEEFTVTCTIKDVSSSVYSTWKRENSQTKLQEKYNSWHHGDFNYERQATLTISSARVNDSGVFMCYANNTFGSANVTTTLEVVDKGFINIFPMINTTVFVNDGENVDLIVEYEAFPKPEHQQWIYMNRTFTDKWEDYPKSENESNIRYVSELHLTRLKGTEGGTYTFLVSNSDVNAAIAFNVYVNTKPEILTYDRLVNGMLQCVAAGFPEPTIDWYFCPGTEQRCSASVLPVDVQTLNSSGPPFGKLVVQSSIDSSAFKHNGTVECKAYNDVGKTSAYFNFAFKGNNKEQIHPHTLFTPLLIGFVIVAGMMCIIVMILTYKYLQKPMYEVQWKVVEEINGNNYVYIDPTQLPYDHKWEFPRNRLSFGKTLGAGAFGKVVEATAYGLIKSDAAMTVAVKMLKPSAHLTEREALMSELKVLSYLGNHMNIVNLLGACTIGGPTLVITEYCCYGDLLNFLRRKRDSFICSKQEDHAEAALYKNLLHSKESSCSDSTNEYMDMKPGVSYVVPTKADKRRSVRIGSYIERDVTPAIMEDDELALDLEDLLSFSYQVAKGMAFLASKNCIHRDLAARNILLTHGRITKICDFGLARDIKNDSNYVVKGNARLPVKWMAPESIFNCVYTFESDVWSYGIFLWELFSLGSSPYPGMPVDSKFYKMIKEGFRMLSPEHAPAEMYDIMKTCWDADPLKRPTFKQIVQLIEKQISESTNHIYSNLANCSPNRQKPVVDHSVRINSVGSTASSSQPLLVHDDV
Kdr, sequence (P35968 20-1356): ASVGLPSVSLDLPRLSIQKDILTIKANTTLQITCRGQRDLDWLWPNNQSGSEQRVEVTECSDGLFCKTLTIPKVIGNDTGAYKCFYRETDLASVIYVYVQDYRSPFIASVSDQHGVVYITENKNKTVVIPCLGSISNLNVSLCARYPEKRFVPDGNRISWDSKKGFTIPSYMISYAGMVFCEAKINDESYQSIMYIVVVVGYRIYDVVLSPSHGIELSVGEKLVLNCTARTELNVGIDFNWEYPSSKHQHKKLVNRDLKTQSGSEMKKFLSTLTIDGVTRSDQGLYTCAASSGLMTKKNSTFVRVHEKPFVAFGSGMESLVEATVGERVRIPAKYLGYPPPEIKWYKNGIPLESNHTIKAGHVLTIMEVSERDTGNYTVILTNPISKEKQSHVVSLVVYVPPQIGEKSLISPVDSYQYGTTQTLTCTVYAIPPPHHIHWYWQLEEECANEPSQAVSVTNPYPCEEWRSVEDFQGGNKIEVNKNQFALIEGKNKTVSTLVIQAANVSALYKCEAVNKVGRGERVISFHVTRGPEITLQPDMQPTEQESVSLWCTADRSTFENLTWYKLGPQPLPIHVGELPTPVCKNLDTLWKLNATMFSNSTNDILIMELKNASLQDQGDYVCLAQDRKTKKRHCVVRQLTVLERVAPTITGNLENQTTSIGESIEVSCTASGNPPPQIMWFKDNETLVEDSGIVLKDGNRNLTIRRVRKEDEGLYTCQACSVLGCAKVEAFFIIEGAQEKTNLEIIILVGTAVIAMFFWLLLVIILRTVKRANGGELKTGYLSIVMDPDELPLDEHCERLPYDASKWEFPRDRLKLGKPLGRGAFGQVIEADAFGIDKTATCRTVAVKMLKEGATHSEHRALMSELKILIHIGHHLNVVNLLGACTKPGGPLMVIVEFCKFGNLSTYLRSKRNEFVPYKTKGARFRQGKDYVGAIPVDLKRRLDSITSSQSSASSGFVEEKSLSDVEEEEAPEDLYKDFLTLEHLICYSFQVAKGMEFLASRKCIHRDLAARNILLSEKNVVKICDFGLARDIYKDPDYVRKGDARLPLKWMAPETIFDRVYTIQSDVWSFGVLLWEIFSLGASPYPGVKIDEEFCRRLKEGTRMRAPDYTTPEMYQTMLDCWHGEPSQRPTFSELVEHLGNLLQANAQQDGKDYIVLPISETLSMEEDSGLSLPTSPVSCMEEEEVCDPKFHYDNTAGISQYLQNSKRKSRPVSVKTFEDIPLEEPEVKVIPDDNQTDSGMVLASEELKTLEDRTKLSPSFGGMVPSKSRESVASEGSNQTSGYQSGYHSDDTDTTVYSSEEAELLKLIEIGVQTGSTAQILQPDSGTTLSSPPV
Btk, sequence (Q06187 whole entry): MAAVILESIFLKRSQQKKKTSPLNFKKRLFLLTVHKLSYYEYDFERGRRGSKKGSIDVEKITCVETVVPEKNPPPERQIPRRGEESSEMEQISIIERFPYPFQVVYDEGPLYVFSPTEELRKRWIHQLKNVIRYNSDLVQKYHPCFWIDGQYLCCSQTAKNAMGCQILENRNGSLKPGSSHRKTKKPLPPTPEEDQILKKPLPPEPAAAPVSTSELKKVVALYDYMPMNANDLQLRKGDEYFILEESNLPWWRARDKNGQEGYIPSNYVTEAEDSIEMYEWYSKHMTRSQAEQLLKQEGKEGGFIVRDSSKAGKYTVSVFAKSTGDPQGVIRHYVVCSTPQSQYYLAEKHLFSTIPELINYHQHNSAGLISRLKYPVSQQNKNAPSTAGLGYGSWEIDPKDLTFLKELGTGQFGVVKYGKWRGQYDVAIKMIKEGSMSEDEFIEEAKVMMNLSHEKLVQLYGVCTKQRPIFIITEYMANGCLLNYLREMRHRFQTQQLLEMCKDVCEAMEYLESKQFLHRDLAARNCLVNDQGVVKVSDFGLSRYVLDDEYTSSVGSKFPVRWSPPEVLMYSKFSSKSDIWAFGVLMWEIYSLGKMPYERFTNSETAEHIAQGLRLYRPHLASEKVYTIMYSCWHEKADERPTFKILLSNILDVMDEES

IC50 (Btk): < 10 µM
IC50 (Kdr): < 10 µM
IC50 (Fms): < 10 µM
IC50 (Kit): < 10 µM
Compound: COc1ccc(CNc2ccc(Cc3c[nH]c4nccnc34)cn2)cn1 [Compound P-0001, (6-methoxy-pyridin-3-ylmethyl)-[5-(5H-pyrrolo[2,3-b]pyrazin-7-ylmethyl)-pyridin-2-yl]-amine]
